These results are taken from patent publication US20200190592A1, “PME-1 AS A BIOMARKER TO PREDICT AND DIAGNOSE AN INCREASED RISK OF ENDOMETRIAL CANCER AND GENE SILENCING OF PME-1 TO INHIBIT EPITHELIAL TO MESENCHYMAL TRANSITION” (Medical Diagnostic Laboratories, L.L.C., priority 2018, published 2020).

Assay type in all cases: cell-based, human
In one data set the test system is PP2A. Kind of data set: PP2A phosphatase assay on RL95-2 whole cell extract. Conditions: RL95-2 cells, 500 μg whole cell extract, vs non-targeting control. As to the method:
Because PME-1 is a known inhibitor of PP2A, we confirmed in this study that depletion of PME-1 by siRNA led to an increase in PP2A activity in cells. To do so, we treated RL95-2 cells with either non-targeting siRNA (Control) or siRNA against PPME1. PP2A activity was monitored using a phosphatase assay (R&D Systems Duo IC Set phosphatase assay kit). In the phosphatase assay, we used 500 μg of whole cell extract and followed the manufacturer's recommendations.
Whole cell lysates were used with the DuoSet IC PP2A Phosphatase Assay Kit (R&D Systems). Procedure was carried out as per kit instructions with 500 μg protein and the absorbance was measured at 620 nm. The assay was repeated twice with similar results.

In a further data set the test system is RL95-2 cells. The experiment in a line: Immunofluorescence for phosphorylated histone H3 (mitotic cells). To be noted: −PME-1 cells compared to control cells. As for the experimental part: Endometrial cancer cells were stained for phosphorylated histone H3 on serine 10, a marker of mitotic cells, followed by counterstaining with DAPI (FIG. 12) to identify all cells.
For analysis of patient samples, tissues were blocked for 2 hr with 10% FBS in TBST for at RT, incubated with each primary antibody (together) overnight at 4° C., washed three times for 15 min in TBST, incubated with each secondary fluorescent antibody (together) for 1 hr at RT, washed again as above, stained with DAPI and mounted with cover-slips using vectashield mounting media (Vector Labs). Primary antibodies used were for PME-1 (Santa Cruz), E-cadherin (Millipore), and vimentin (Genscript). 1×10^3RL95-2 cells were plated on a chamber slide and were incubated overnight at 37° C. Slides were fixed with 4% paraformaldehyde (PFA) on ice for two hours. The cells were incubated with the primary antibody to Histone 3 (pH3) phosphorylated at Ser10 (1:200, Cell Signaling Technologies) overnight and developed with the secondary anti-rabbit Alexa-Fluor 555 antibody (Cell Signaling Technologies). DAPI was used as a nuclear counter-stain (Sigma Aldrich). Images were taken with the Nikon Eclipse TE2000 at 20×.

Another data set relates to DcR2. Kind of data set: Senescence assay (Western for DcR2). Conditions: RL95-2 lysates, GAPDH loading control. As to the method: We next analyzed cell lysates taken from RL95-2 cells that expressed either empty vector (Control), overexpressed PME-1 (+PME-1) or expressed shRNA against PME-1 (−PME-1) for DcR2 protein.
15 μg of protein was used for western analysis. PME-1 antibody (Santa Cruz) and COXIV (Cell Signaling Technologies) were used for detection of proteins and the blots were developed using chemiluminescence (Pierce ECL Western Blotting Substrate—Thermo Scientific) on the GE ImageQuant LAS 4000. For analysis of Akt, ERK, and β-catenin signaling in tissue culture, western analyses were completed as follows. RL95-2 cells stably infected with lentivirus expressing constructs were selected with puromycin (Invivogen). The cells were incubated with either 50 μM Akt inhibitor (LY 294002, Cell Signaling Technologies) or 40 μM ERK inhibitor (V0126, Cell Signaling Technologies) for 1-2 hours at 37° C. 1.5× Laemelli buffer (0.5 M Tris pH6.8, […], 10% sodium dodecyl sulfate, 100 mM EDTA) was used to prepare cell lysates. 20 μg of protein was used for western analysis. Primary antibodies used were: P-Akt (Ser473), P-Akt (Thr308), pan-Akt, P-ERK (Thr202/204), total ERK (Cell Signaling Technologies), PME-1 (Santa Cruz), phospho-β-catenin (Ser45, Cell Signaling Technologies), phospho-β-catenin (Ser33/37/Thr41, Cell Signaling Technologies), β-catenin (Abcam), DcR2 (Abcam), and GAPDH (Abcam). […]

The test system of a further data set is β-catenin. The experiment in a line: Western analysis of β-catenin in RL95-2 cells. The source says: We performed Western blot analysis in RL95-2 cells that were expressing empty vector (Control), over-expressing PME-1 (+PME-1) or expressing shRNA against PME-1 (−PME-1) to examine the protein stability of β-catenin (FIG. 19A). We observed a decrease in total β-catenin protein in cells that were over-expressing PME-1. This observation is correlated with the predicted ubiquitylation of β-catenin and its degradation. Conversely, a depletion of PME-1 led to stabilization of total β-catenin (FIG. 19A).
In another series of study, we performed a similar assay in which cells were treated with 10 μM MG-132 prior to protein extraction. MG-132 is a proteasome inhibitor and therefore allows for the accumulation of phosphorylated β-catenin, which is normally quickly degraded, to be detected by western analysis.
15 μg of protein was used for western analysis. PME-1 antibody (Santa Cruz) and COXIV (Cell Signaling Technologies) were used for detection of proteins and the blots were developed using chemiluminescence (Pierce ECL Western Blotting Substrate—Thermo Scientific) on the GE ImageQuant LAS 4000. For analysis of Akt, ERK, and β-catenin signaling in tissue culture, western analyses were completed as follows. RL95-2 cells stably infected with lentivirus expressing constructs were selected with puromycin (Invivogen). […]

The next data set relates to PPME1. The experiment in a line: qRT-PCR of PPME1 (PME-1) expression in RL95-2 cells. To be noted: RL95-2, normalized to 18S, vs shSCR. As to the method:
In this study, we transfected RL95-2 cells to express empty vector (Control), over-expressing PME-1 (+PME-1) or expressing shRNA against PME-1 (−PME-1) followed by serum starvation for 24 hours. Afterwards, either vehicle or TGF-β treatment was performed at the end of the 24 hours. TGF-β was used to induce cells to initiate the EMT program. Gene expression analysis was conducted using quantitative real-time PCR.
Using RL95-2 endometrial cancer cells, we overexpressed PME-1 (FIG. 21A) or depleted PME-1 with shRNA (FIG. 21B) and confirmed that PME-1 was appropriately expressed.
Total RNA was extracted with Qiagen RNAEasy kit from RL95-2 cells. cDNA was synthesized using 500 ng-1 μg of RNA and SuperScript VILO c-DNA mix (Life Technologies). Taqman probes and PCR-mix were purchased from Life Technologies. All samples were run in triplicates. Results are representative of three independent experiments in which genes of interest were normalized to the house-keeping gene, 18S or GAPDH, where fold-change was calculated using the ddCt method.
Background: Quantitative PCR measures a nucleic acid by following its amplification.

A further data set concerns ECC-1 cells. The experiment in a line: Foci formation analysis in ECC-1 cells. Conditions: 10 days. As for the experimental part:
We performed a foci formation analysis by transfecting (i) empty FLAG vector, (ii) FLAG-PPP2CA, (iii) FLAG-PPP4C, or (iv) FLAG-PPP6C into ECC-1 cells that stably expressed either (i) shSCR (non-targeting shRNA, black bars) or (ii) shPPME1 (depletes PME-1 levels, white bars) (FIG. 24).
1,000 cells were plated in a six well tissue culture dish in selection media (to include 5 μg/ml puromycin) (InvivoGen). Cells were allowed to adhere and grow in a 5% CO2, 37° C. incubator for 10 to 14 days. Media was replaced every fourth day. Cells were stained with 1% crystal violet (Sigma Aldrich) for five minutes and rinsed with PBS. Colonies were counted and data is presented as the percentage of change compared to the control. All Experiments were repeated at least three times.

Some results are limits rather than exact numbers.

With “shPPME1 no. 2: shRNA targeting PPME1, SEQ ID NO: 2: GCAGCGATTATTAGTAGAGTT, bp 289-309; used for all subsequent experiments (guide GCAGCGATTATTAGTAGAGTT; listed as Homo sapiens)”, the “increase in PP2A activity” value in the data set on PP2A is recorded as 30 fold. In the data set on RL95-2 cells, the “decreased proliferation (phospho-histone H3 positive cells)” value is on record as roughly 30%. For the same substance, the “senescent marker protein DcR2” value in the data set with DcR2 is given as “increase”. Further, the “total β-catenin” value with β-catenin (absence of MG-132) is “stabilization”. For the same substance, the “phosphorylated β-catenin” value in the data set on β-catenin (cells treated with 10 μM MG-132, compared to control cells) is “did not lead to an increase”. The substance also returned a PME-1 knocked down with PPME1 greater than 50%. Besides, the foci formation entry in the data set with ECC-1 cells (ECC-1, empty FLAG vector, vs shSCR control) is reported as “significant decrease”; in the data set on ECC-1 cells (ECC-1 transfected with PP2A, PP4 or PP6, vs shSCR), “significant decrease”.
